The values below come from patent publication US20260146274A1, “RECOMBINANT SMALL-MOLECULE COLLAGEN, EXPRESSION SYSTEM THEREOF, AND PREPARATION METHOD THEREOF” (JIANGSU TRAUTEC MEDICAL TECHNOLOGY CO., LTD., priority 2023, published 2026).

The experiment has as its system NIH/3T3 cell. In words: Cell adhesion activity detection (LDH kit, OD492 nm). The experiment is classed as cell-based. The following applies: for cell adhesion activity (absorbance at OD492 nm) compared with natural human collagen: protein coated at 0.5 mg/mL, NIH/3T3 cells, 60 minutes, FIG. 26. On the procedure: References for Detection Method for Cell Adhesion Activity of Recombinant Small-Molecule Collagen: Juming Yao, Satoshi Yanagisawa, Tetsuo Asakura. Design, Expression and Characterization of Collagen-Like Proteins Based on the Cell Adhesive and Crosslinking Sequences Derived from natural Collagens, J Biochem. 136, 643-649 (2004).
Specific implementation method: A NIH/3T3 cell was cultured under standard conditions (purchased from Cell Bank of the Chinese Academy of Sciences, with catalog number of GNM6. Culture and passage methods followed a cell instruction). […] A natural human collagen (Sigma, Catalog No. C7774) was compared to a bovine serum albumin solution (BSA, purchased from Sangon Biotech (Shanghai) Co., Ltd.) (in ultrapure water or 1M HCl solution). Protein concentration was determined using the UV protein quantification empirical formula: C (mg/mL)=0.144×(A215-A225). Then, the protein was diluted to 0.5 mg/mL with PBS (pH 7.4).
100 μL of various protein solutions and blank PBS solution were added to a 96-well cell culture plate, and set aside 60 minutes at room temperature. Then, […] NIH/3T3 cells with good culture status were added to each well, and incubated at 37° C. and 5% CO2 for 60 minutes. The cells were cleaned in the wells 4 times with PBS. An absorbance value at OD492 nm was detected using a LDH detection kit (Roche, 04744926001). Data were analyzed and subject to significant differential analysis (SPSS 22 software, Duncan's method, P<0.05).
The absorbance value at OD492 nm characterized the cell adhesion activity of a collagen sample: higher adhesion activity indicated more cells adhering to the protein.

Setting [1] is: equivalent concentrations (0.5 mg/mL), NIH/3T3, Duncan's method P<0.05.

For “17S1NNT: 82 amino acids, positions 636 to 718 of full-length human collagen XVII, SEQ ID NO.5”, the “cell adhesion activity (absorbance at OD492 nm) compared with natural human collagen” value is “comparable to or superior to that of a natural human collagen”. Moreover, the “cell adhesion activity compared with larger-molecular-weight recombinant type-XVII collagen” value under setting [1] is recorded as “no significant difference”.

B1: 3A5D1NT: 96 amino acids, positions 990 to 1085 of full-length human type III collagen, SEQ ID NO.1 (protein, listed as Homo sapiens)
chain: DGNPGSDGLPGRDGSPGGKGDRGENGSPGAPGAPGHPGPPGPVGPAGKSGDRGESGPAGPAGAPGPAGSRGAPGPQGPRGDKGETGERGAAGIKGH
modifications: Recombinant small-molecule collagen 3A5D1NT
With B1, the “cell adhesion activity (absorbance at OD492 nm) compared with natural human collagen” value was “comparable to or superior to that of a natural human collagen”. In addition, the “cell adhesion activity compared with larger-molecular-weight recombinant type-III collagen” value under setting [1] was “significantly outperformed”.
